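Tested at 5 concentrations; 48 h exposure; 96-well plates; endpoints linearly interpolated, else capped at highest concentration. TGI denotes the concentration required for complete inhibition of growth.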
Experiments:
Assay in all cases: inhibition of tumour cell growth, NCI panel, 48 h
[1] = system: SF-295 CNS
[2] = system: RXF 393 renal
[3] = system: SW-620 colon
[4] = system: K-562 leukemia
[5] = system: MDA-N
[6] = system: M14 melanoma
[7] = system: BT-549 breast
[8] = system: CCRF-CEM leukemia
[9] = system: CAKI-1 renal
[10] = system: SR leukemia
[11] = system: T-47D breast
[12] = system: UACC-257 melanoma
[13] = system: 786-0 renal
[14] = system: HT29 colon
[15] = system: TK-10 renal
[16] = system: SK-MEL-28 melanoma

SMILES	TGI [1] [µM]	TGI [2] [µM]	TGI [3] [µM]	TGI [4] [µM]	TGI [5] [µM]	TGI [6] [µM]	TGI [7] [µM]	TGI [8] [µM]	TGI [9] [µM]	TGI [10] [µM]	TGI [11] [µM]	TGI [12] [µM]	TGI [13] [µM]	TGI [14] [µM]	TGI [15] [µM]	TGI [16] [µM]
C1=NCCNCCN=Cc2ccccc2OCc2cccc(n2)COc2ccccc21	> 51.4	> 100	> 75.9	> 79.5	31.4	> 46.6	44.4	> 34.3	> 95.6	> 100	> 100	> 100	> 39.1	47.3	> 75.6	> 100
COc1ccc([C@H](NC(=O)c2ccccc2)[C@@H](O)C(=O)O[C@H]2C[C@@]3(O)C(OC(=O)c4ccccc4)C4[C@](C)(C(=O)[C@H](OC(C)=O)C(=C2C)C3(C)C)[C@@H](O)C[C@H]2OC[C@@]42OC(C)=O)cc1 (stereo partly drawn)	2.92	> 10	> 10	> 10	> 10	> 10	> 10	> 10	> 10	0.694	> 10	> 10	> 10	0.0656	> 10	> 10
Cc1ccc(CCCCCOc2ccc(C3=NCCO3)cc2)s1	> 100	> 100	> 100	> 100	62.6	> 100	> 100	> 100	> 100	> 100	> 100	> 100	> 100	> 100	> 100	> 100

— PubChem BioAssay (NCI)
